Measured values published in patent US20100173888A1 (Pfizer Inc, priority 2008, published 2010).

These molecules were tested against human recombinant H-PGDS (Homo sapiens, UniProt O60760) (assay: Slightly modified fluorescence intensity h-PGDS TBA enzyme assay (1:40,000 enzyme, 40 second reaction, 1/2 log dilutions, top concentration typically 10 μM)). Settings: slightly modified assay: 1:40,000 human recombinant H-PGDS.
Chain of human recombinant H-PGDS (O60760 whole entry): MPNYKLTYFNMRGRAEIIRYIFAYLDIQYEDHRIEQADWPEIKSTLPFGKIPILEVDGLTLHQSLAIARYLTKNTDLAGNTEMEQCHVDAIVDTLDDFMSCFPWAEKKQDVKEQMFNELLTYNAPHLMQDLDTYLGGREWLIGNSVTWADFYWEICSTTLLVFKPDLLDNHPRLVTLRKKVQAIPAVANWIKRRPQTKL
Assay type: biochemical
Experimental: Fluoresecence Intensity h-PGDSTBA Enzyme Assay
Prostaglandin D Synthase (PGDS) converts the substrate prostaglandin H2 (PGH2) to prostaglandin D2. The depletion of PGH2 was measured via an Fe(II) reduction of the remaining PGH2 to malondialdehyde (MDA) and 12-HHT. The enzyme assay is based on the quantitative formation of a fluorescent complex from the non-fluorescent compounds MDA and 2-thiobarbituric acid (TBA), substantially as described in U.S. patent application publication US-2004/152148 by Lombardt.
Examples 6-8, 11a-16, 23, 26-47, 49-103, 105-113, 115-118 and 126-128 were tested in a slightly modified assay: The enzyme assay (30 μls during biological process) contained 100 mM Trizma pH 8.0, 100 μM MgCl2, 0.1 mg/ml IgG Rabbit serum, 5.0 μM PGH2 (Cayman; ethanol solution, #17020), 2.5 mM L-Glutathione (Sigma; reduced form #G4251), 1:40,000 human recombinant H-PGDS (from 1 mg/ml), 0.5% DMSO and inhibitor (varying concentration). 3 μls of diluted inhibitor (dissolved in DMSO) was plated into a 384-well assay plate followed by a 24 μl addition of an enzyme solution containing h-PGDS, Trizma, MgCl2, IgG and L-Glutathione. After pre-incubation of inhibitor and enzyme solution for 10 minutes at room temperature, the reaction was initiated with a 3 μl addition of substrate solution in 10 mM HCl. The reaction was terminated after 40 second by the addition of 3 μl stop buffer containing FeCl2 and citric acid. After addition of 45 μls of TBA plates were heated for one hour in a 70° C. oven. Plates were cooled at room temperature overnight and read on a plate reader the next day with excitation @ 530 nm and emission @ 560 nm. IC50' s of inhibitors were calculated with a 4-parameter fit using 11 inhibitor concentrations in duplicate with ½ log serial dilutions. Controls on each plate included no inhibitor (zero % effect) and an inhibitor 500-fold in excess of its' IC50 (100% effect). The highest inhibitor concentration tested was typically 10 μM.
An IC50 of 23 nM was found for `O=C(NC1CCC(n2ccnc2)CC1)c1ccc(-c2cccc(F)c2)nc1` (stereo not drawn) [Example 47, 6-(3-Fluorophenyl)-N-[4-(1H-imidazol-1-yl)cyclohexyl]nicotinamide] in this work. An IC50 of 9.26 nM was found for `O=C(NC1CCC(N2CCCOCC2)CC1)c1ccc(-c2cccc(F)c2)nc1` (stereo not drawn) [Example 53, 6-(3-Fluorophenyl)-N-[4-(1,4-oxazepan-4-yl)cyclohexyl]nicotinamide] in this work. An IC50 of 137 nM was found for `O=C(NC1CCC(N2CCC(O)CC2)CC1)c1ccc(-c2cccc(F)c2)nc1` (stereo not drawn) [Example 62, 6-(3-Fluorophenyl)-N-[4-(4-hydroxypiperidin-1-yl)cyclohexyl]nicotinamide] in this work. An IC50 of 8.3 nM was found for `COCCNC(=O)[C@@H]1CCC[C@H](NC(=O)c2ccc(-c3cccc(F)c3)nc2)C1` [Example 64A, 6-(3-fluorophenyl)-N-{(1S,3R)-3-[(2-methoxyethyl)carbamoyl]cyclohexyl}nicotinamide] in this work. An IC50 of 15.7 nM was found for `O=C(N[C@H]1CC[C@@H](O)CC1)c1ccc(-c2cccc(F)c2)nc1` [Example 65, 6-(3-Fluorophenyl)-N-(cis-4-hydroxycyclohexyl)nicotinamide] in this work. An IC50 of 97.4 nM was found for `O=C(N[C@H]1CC[C@@H](C(=O)O)CC1)c1ccc(-c2cccc(F)c2)nc1` [Example 66, cis-4-({[6-(3-Fluorophenyl)pyridin-3-yl]carbonyl}amino)cyclohexanecarboxylic acid] in this work. An IC50 of 118 nM was found for `CN(C)C[C@H]1CC[C@@H](NC(=O)c2ccc(-c3cccc(F)c3)nc2)CC1` [Example 67, N-{cis-4-[(Dimethylamino)methyl]cyclohexyl}-6-(3-fluorophenyl)nicotinamide] in this work. An IC50 of 13.2 nM was found for `O=C(N[C@H]1CC[C@@H](C(=O)N2CCC(O)CC2)CC1)c1ccc(-c2cccc(F)c2)nc1` [Example 68, 6-(3-Fluorophenyl)-N-{cis-4-[(4-hydroxypiperidin-1-yl)carbonyl]cyclohexyl}nicotinamide] in this work. An IC50 of 14.7 nM was found for `O=C(N[C@H]1CC[C@@H](C(=O)NC2CCCC2)CC1)c1ccc(-c2cccc(F)c2)nc1` [Example 69, N-[cis-4-(Cyclopentylcarbmoyl)cyclohexyl]-6-(3-fluorophenyl)nicotinamide] in this work. An IC50 of 4.62 nM was found for `O=C(N[C@H]1CC[C@@H](C(=O)N2CCCC2)CC1)c1ccc(-c2cccc(F)c2)nc1` [Example 70, 6-(3-Fluorophenyl)-N-[cis-4-(pyrrolidin-1-ylcarbonyl)cyclohexyl]nicotinamide] in this work. An IC50 of 22 nM was found for `O=C(N[C@H]1CC[C@@H](C(=O)NCc2ccccc2)CC1)c1ccc(-c2cccc(F)c2)nc1` [Example 71, N-[cis-4-(Benzylcarbamoyl)cyclohexyl]-6-(3-fluorophenyl)nicotinamide] in this work. An IC50 of 23.2 nM was found for `CN1CCN(C(=O)[C@H]2CC[C@@H](NC(=O)c3ccc(-c4cccc(F)c4)nc3)CC2)CC1` [Example 72, 6-(3-Fluorophenyl)-N-{cis-4-[(4-methylpiperazin-1-yl)carbonyl]cyclohexyl}nicotinamide] in this work. An IC50 of 14 nM was found for `O=C(N[C@H]1CC[C@@H](C(=O)N2CCOCC2)CC1)c1ccc(-c2cccc(F)c2)nc1` [Example 73, 6-(3-Fluorophenyl)-N-[cis-4-(morpholin-4-ylcarbonyl)cyclohexyl]nicotinamide] in this work. An IC50 of 10.8 nM was found for `CN(C)C(=O)[C@H]1CC[C@@H](NC(=O)c2ccc(-c3cccc(F)c3)nc2)CC1` [Example 74, N-[cis-4-(Dimethylcarbamoyl)cyclohexyl]-6-(3-fluorophenyl)nicotinamide] in this work. An IC50 of 20.6 nM was found for `CC(C)(C)NC(=O)[C@H]1CC[C@@H](NC(=O)c2ccc(-c3cccc(F)c3)nc2)CC1` [Example 75, N-[cis-4-(tert-Butylcarbamoyl)cyclohexyl]-6-(3-fluorophenyl)nicotinamide] in this work. An IC50 of 31.8 nM was found for `CNCCN(C)C(=O)[C@H]1CC[C@@H](NC(=O)c2ccc(-c3cccc(F)c3)nc2)CC1` [Example 76, 6-(3-Fluorophenyl)-N-(cis-4-{methyl[2-(methylamino)ethyl]carbamoyl}cyclohexyl)nicotinamide] in this work. An IC50 of 6.42 nM was found for `CCN(C)C(=O)[C@H]1CC[C@@H](NC(=O)c2ccc(-c3cccc(F)c3)nc2)CC1` [Example 77, N-{cis-4-[Ethyl(methyl)carbamoyl]cyclohexyl}-6-(3-fluorophenyl)nicotinamide] in this work. An IC50 of 7.89 nM was found for `CN(C)C(=O)C[C@H]1CC[C@@H](NC(=O)c2ccc(-c3cccc(F)c3)nc2)CC1` [Example 78] in this work. An IC50 of 15.9 nM was found for `Cc1nccn1C[C@H]1CC[C@@H](NC(=O)c2ccc(-c3cccc(F)c3)nc2)CC1` [Example 79, 6-(3-Fluorophenyl)-N-{cis-4-[(2-methyl-1H-imidazol-1-yl)methyl]cyclohexyl}nicotinamide] in this work. An IC50 of 16.6 nM was found for `O=C(N[C@H]1CC[C@@H](CN2CCOCC2)CC1)c1ccc(-c2cccc(F)c2)nc1` [Example 80, 6-(3-Fluorophenyl)-N-[cis-4-(morpholin-4-ylmethyl)cyclohexyl]nicotinamide] in this work. An IC50 of 53.4 nM was found for `CN1CCN(C[C@H]2CC[C@@H](NC(=O)c3ccc(-c4cccc(F)c4)nc3)CC2)CC1` [Example 81, 6-(3-Fluorophenyl)-N-{cis-4-[(4-methylpiperazin-1-yl)methyl]cyclohexyl}nicotinamide] in this work. An IC50 of 12.6 nM was found for `Cn1nnnc1O[C@H]1CC[C@H](NC(=O)c2ccc(-c3cccc(F)c3)nc2)CC1` [Example 82, 6-(3-Fluorophenyl)-N-{trans-4-[(1-methyl-1H-tetrazol-5-yl)oxy]cyclohexyl}nicotinamide] in this work. An IC50 of 6.93 nM was found for `CO[C@H]1CC[C@H](NC(=O)c2ccc(-c3cccc(F)c3)nc2)CC1` [Example 83, 6-(3-Fluorophenyl)-N-(trans-4-methoxycyclohexyl)nicotinamide] in this work. An IC50 of 39.8 nM was found for `O=C(N[C@H]1CC[C@H](C(=O)O)CC1)c1ccc(-c2cccc(F)c2)nc1` [Example 84, trans-4-({[6-(3-fluorophenyl)pyridin-3yl]carbonyl}amino)cyclohexanecarboxylic acid] in this work. An IC50 of 2.75 nM was found for `O=C(N[C@H]1CC[C@H](C(=O)N2CCC(O)CC2)CC1)c1ccc(-c2cccc(F)c2)nc1` [Example 85, 6-(3-Fluorophenyl)-N-{trans-4-[(4-hydroxypiperidin-1-yl)carbonyl]cyclohexyl}nicotinamide] in this work. An IC50 of 25.6 nM was found for `O=C(N[C@H]1CC[C@H](C(=O)NC2CCCC2)CC1)c1ccc(-c2cccc(F)c2)nc1` [Example 86, N-[trans-4-(Cyclopentylcarbamoyl)cyclohexyl]-6-(3-fluorophenyl)nicotinamide] in this work. An IC50 of 2.07 nM was found for `O=C(N[C@H]1CC[C@H](C(=O)N2CCCC2)CC1)c1ccc(-c2cccc(F)c2)nc1` [Example 87, 6-(3-Fluorophenyl)-N-[trans-4-(pyrrolidin-1-ylcarbonyl)cyclohexyl]nicotinamide] in this work. An IC50 of 14.7 nM was found for `CC(C)NC(=O)[C@H]1CC[C@H](NC(=O)c2ccc(-c3cccc(F)c3)nc2)CC1` [Example 88, 6-(3-Fluorophenyl)-N-[trans-4-(isopropylcarbamoyl)cyclohexyl]nicotinamide] in this work. An IC50 of 3.93 nM was found for `O=C(N[C@H]1CC[C@H](OCCO)CC1)c1ccc(-c2cccc(F)c2)nc1` [Example 89, 6-(3-Fluorophenyl)-N-[trans-4-(2-hydroxyethoxy)cyclohexyl]nicotinamide] in this work. An IC50 of 12.6 nM was found for `CN1CCN(C(=O)[C@H]2CC[C@H](NC(=O)c3ccc(-c4cccc(F)c4)nc3)CC2)CC1` [Example 90, 6-(3-Fluorophenyl)-N-{trans-4-[(4-methylpiperazin-1-yl)carbonyl]cyclohexyl}nicotinamide] in this work. An IC50 of 3.94 nM was found for `O=C(N[C@H]1CC[C@H](C(=O)N2CCOCC2)CC1)c1ccc(-c2cccc(F)c2)nc1` [Example 91, 6-(3-Fluorophenyl)-N-[trans-4-(morpholin-4-ylcarbonyl)cyclohexyl]nicotinamide] in this work. An IC50 of 2.71 nM was found for `CN(C)C(=O)[C@H]1CC[C@H](NC(=O)c2ccc(-c3cccc(F)c3)nc2)CC1` [Example 92, N-[trans-4-(Dimethylcarbamoyl)cyclohexyl]-6-(3-fluorophenyl)nicotinamide] in this work. An IC50 of 15.3 nM was found for `CNCCN(C)C(=O)[C@H]1CC[C@H](NC(=O)c2ccc(-c3cccc(F)c3)nc2)CC1` [Example 93, 6-(3-Fluorophenyl)-N-(trans-4-{methyl[2-(methylamino)ethyl]carbamoyl}cyclohexyl)nicotinamide] in this work. An IC50 of 51.9 nM was found for `CN[C@H]1CC[C@H](NC(=O)c2ccc(-c3cccc(F)c3)nc2)CC1` [Example 94, 6-(3-Fluorophenyl)-N-[trans-4-(methylamino)cyclohexyl]-nicotinamide] in this work. An IC50 of 6.28 nM was found for `CN(C)C(=O)C[C@H]1CC[C@H](NC(=O)c2ccc(-c3cccc(F)c3)nc2)CC1` [Example 95, N-{trans-4-[2-(Dimethylamino)-2-oxoethyl]cyclohexyl}-6-(3-fluorophenyl)nicotinamide] in this work. An IC50 of 23.7 nM was found for `CCN1CCN(C(=O)[C@H]2CC[C@H](NC(=O)c3ccc(-c4cccc(F)c4)nc3)CC2)CC1` [Example 96, N-{trans-4-[(4-Ethylpiperazin-1-yl)carbonyl]cyclohexyl}-6-(3-fluorophenyl)nicotinamide] in this work.
